Results published in patent publication US20080181942A1, “Delta-9-THC compositions and methods for treating symptoms associated with multiple sclerosis” (University of Plymouth, priority 2006, published 2008).

Experiments:
[1] = test system: patients with multiple sclerosis; assay: category-rating scales, patient reporting of secondary outcomes; type: in vivo, human; conditions: category rating scale
[2] = test system: patients with multiple sclerosis with problematic spasticity; assay: Ashworth score of spasticity, randomized placebo-controlled study; type: in vivo, human; conditions: baseline to 13 weeks follow-up (visit 7)
[3] = test system: patients with multiple sclerosis; assay: adverse events reported by patients
[4] = test system: patients with multiple sclerosis; assay: patient assessment of treatment benefit at visit 8; type: in vivo, human

For `CCCCCc1cc(O)c2c(c1)OC(C)(C)[C@@H]1CCC(C)=C[C@@H]21` (relative stereo) [delta-9-THC, (6aR-trans)-6a,7,8,10a-tetrahydro-6,6,9-trimethyl-3-pentyl-6H-dibenzo[b,d]pyran-1-ol], the “Depression: Deterioration” value ([1]; number of patients) was 42, the “Depression: Improvement” value ([1]; number of patients) was 36 and the “Depression: Same” value ([1]; number of patients) was 47. The “Energy: Deterioration” value ([1]; number of patients) was 49, the “Energy: Improvement” value ([1]; number of patients) was 61 and the “Energy: Same” value ([1]; number of patients) was 63. The “Irritability: Deterioration” value ([1]; number of patients) was 32, the “Irritability: Improvement” value ([1]; number of patients) was 37 and the “Irritability: Same” value ([1]; number of patients) was 42. For the same molecule, the “Pain: Deterioration” value ([1]; number of patients) was 22, the “Pain: Improvement” value ([1]; number of patients) was 64 and the “Pain: Same” value ([1]; number of patients) was 43. The “Shake/tremor: Deterioration” value ([1]; number of patients) was 32, the “Shake/tremor: Improvement” value ([1]; number of patients) was 52 and the “Shake/tremor: Same” value ([1]; number of patients) was 44. For the same molecule, the “Sleep: Deterioration” value ([1]; number of patients) was 24, the “Sleep: Improvement” value ([1]; number of patients) was 71 and the “Sleep: Same” value ([1]; number of patients) was 57. The “Spasms: Deterioration” value ([1]; number of patients) was 27, the “Spasms: Improvement” value ([1]; number of patients) was 81 and the “Spasms: Same” value ([1]; number of patients) was 49. For the same molecule, the “Spasticity: Deterioration” value ([1]; number of patients) was 47, the “Spasticity: Improvement” value ([1]; number of patients) was 89 and the “Spasticity: Same” value ([1]; number of patients) was 40. For the same molecule, the “Tiredness: Deterioration” value ([1]; number of patients) was 76, the “Tiredness: Improvement” value ([1]; number of patients) was 35 and the “Tiredness: Same” value ([1]; number of patients) was 46. The “Depression: Deterioration” value ([1]; percent of patients) was “(34%)”, the “Depression: Improvement” value ([1]; percent of patients) was “(29%)” and the “Depression: Same” value ([1]; percent of patients) was “(38%)”. The “Energy: Deterioration” value ([1]; percent of patients) was “(28%)”, the “Energy: Improvement” value ([1]; percent of patients) was “(35%)” and the “Energy: Same” value ([1]; percent of patients) was “(36%)”. For the same molecule, the “Irritability: Deterioration” value ([1]; percent of patients) was “(29%)”, the “Irritability: Improvement” value ([1]; percent of patients) was “(33%)” and the “Irritability: Same” value ([1]; percent of patients) was “(38%)”. The “Pain: Deterioration” value ([1]; percent of patients) was “(17%)”, the “Pain: Improvement” value ([1]; percent of patients) was “(50%)” and the “Pain: Same” value ([1]; percent of patients) was “(33%)”. The “Shake/tremor: Deterioration” value ([1]; percent of patients) was “(25%)”, the “Shake/tremor: Improvement” value ([1]; percent of patients) was “(41%)” and the “Shake/tremor: Same” value ([1]; percent of patients) was “(34%)”. For the same molecule, the “Sleep: Deterioration” value ([1]; percent of patients) was “(16%)”, the “Sleep: Improvement” value ([1]; percent of patients) was “(47%)” and the “Sleep: Same” value ([1]; percent of patients) was “(38%)”. The “Spasms: Deterioration” value ([1]; percent of patients) was “(22%)”, the “Spasms: Improvement” value ([1]; percent of patients) was “(49%)” and the “Spasms: Same” value ([1]; percent of patients) was “(29%)”. The “Spasticity: Deterioration” value ([1]; percent of patients) was “(27%)”, the “Spasticity: Improvement” value ([1]; percent of patients) was “(51%)” and the “Spasticity: Same” value ([1]; percent of patients) was “(23%)”. The “Tiredness: Deterioration” value ([1]; percent of patients) was “(48%)”, the “Tiredness: Improvement” value ([1]; percent of patients) was “(22%)” and the “Tiredness: Same” value ([1]; percent of patients) was “(29%)”. The “Mean (SD) change in Ashworth score, upper-body muscle groups (baseline minus follow-up)” value [2] was 0.48 (4.70), the “incidences of MS relapse” value ([3]; by comparison with placebo) was “greatly reduced” and the “Adverse Event: Blocked/insertion of suprapubic catheter” value ([3]; number reported) was 0. The “Adverse Event: Constipation” value ([3]; number reported) was 0, the “Adverse Event: Grand mal seizure” value ([3]; number reported) was 0 and the “Adverse Event: MS relapse or possible relapse” value ([3]; number reported) was 1. The “Adverse Event: Other” value ([3]; number reported) was 11, the “Adverse Event: Pneumonia” value ([3]; number reported) was 2 and the “Adverse Event: Urinary tract infection” value ([3]; number reported) was 3. The “Symptom Improvement, Bladder: No” value ([4]; number of patients) was 97, the “Symptom Improvement, Bladder: Yes” value ([4]; number of patients) was 67 and the “Symptom Improvement, Pain: No” value ([4]; number of patients) was 64. For the same molecule, the “Symptom Improvement, Pain: Yes” value ([4]; number of patients) was 64, the “Symptom Improvement, Spasticity: No” value ([4]; number of patients) was 73 and the “Symptom Improvement, Tremor: No” value ([4]; number of patients) was 67. For the same molecule, the “Symptom Improvement, Tremor: Yes” value ([4]; number of patients) was 44, the “Symptom Improvement, Bladder: No” value ([4]; percent of patients) was 59% and the “Symptom Improvement, Bladder: Yes” value ([4]; percent of patients) was 40%. The “Symptom Improvement, Pain: No” value ([4]; percent of patients) was 50%, the “Symptom Improvement, Pain: Yes” value ([4]; percent of patients) was 50% and the “Symptom Improvement, Spasticity: No” value ([4]; percent of patients) was 40%. For the same molecule, the “Symptom Improvement, Spasticity: Yes” value ([4]; percent of patients) was 60%, the “Symptom Improvement, Tremor: No” value ([4]; percent of patients) was 60% and the “Symptom Improvement, Tremor: Yes” value ([4]; percent of patients) was 40%.
